The text below walks through data of ChEMBL document CHEMBL5038659, “Discovery of the First Examples of Threonine Tyrosine Kinase PROTAC Degraders” (J Med Chem, 2022).

Data set [1] concerns COLO 205. Kind of data set: Antiproliferative against human COLO 205 cells assessed as cell viability after 4 days by CCK-8 assay. It is filed as functional, cell-based. As to conditions: COLO 205, 96 h.
The target of data set [2] is T1, Dual specificity protein kinase TTK (Homo sapiens, UniProt P33981).
T1 sequence (P33981 whole entry): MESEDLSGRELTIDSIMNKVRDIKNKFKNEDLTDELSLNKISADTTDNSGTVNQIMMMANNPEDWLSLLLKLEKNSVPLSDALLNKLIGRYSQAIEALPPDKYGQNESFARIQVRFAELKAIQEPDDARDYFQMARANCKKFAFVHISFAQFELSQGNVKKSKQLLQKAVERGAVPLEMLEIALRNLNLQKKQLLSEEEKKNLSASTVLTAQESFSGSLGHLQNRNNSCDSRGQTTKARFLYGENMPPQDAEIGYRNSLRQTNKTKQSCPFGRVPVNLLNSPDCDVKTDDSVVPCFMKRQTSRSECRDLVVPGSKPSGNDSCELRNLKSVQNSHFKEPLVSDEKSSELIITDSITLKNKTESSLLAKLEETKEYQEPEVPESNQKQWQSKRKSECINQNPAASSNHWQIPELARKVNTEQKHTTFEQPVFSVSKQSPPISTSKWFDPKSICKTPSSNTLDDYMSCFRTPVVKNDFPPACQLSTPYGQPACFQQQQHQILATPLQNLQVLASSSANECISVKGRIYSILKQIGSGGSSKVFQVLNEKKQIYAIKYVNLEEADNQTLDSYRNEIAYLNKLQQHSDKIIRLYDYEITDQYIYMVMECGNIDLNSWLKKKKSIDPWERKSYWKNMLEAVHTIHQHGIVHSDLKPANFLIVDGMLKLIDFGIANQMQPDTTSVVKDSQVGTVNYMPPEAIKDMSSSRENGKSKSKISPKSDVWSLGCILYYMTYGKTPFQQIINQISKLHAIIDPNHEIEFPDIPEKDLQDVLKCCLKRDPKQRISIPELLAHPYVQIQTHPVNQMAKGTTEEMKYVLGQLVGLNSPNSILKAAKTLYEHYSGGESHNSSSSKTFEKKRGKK
The data set can be described thus: Binding affinity to human TTK expressed in bacterial expression system assessed as dissociation constant at 100 nM by biochemical assay.

Data set [3] can be described thus: Half life in Sprague-Dawley rat at 10 mg/kg, ip by LC-MS/MS analysis. It is filed as ADME, organism-based. Particulars: in vivo.
A short description of data set [4]: AUC in Sprague-Dawley rat at 10 mg/kg, ip by LC-MS/MS analysis. It is filed as ADME, organism-based. Also noted: dose 10 mg/kg. Particulars: in vivo.
Data set [5] concerns the target T2, Protein cereblon/Dual specificity protein kinase TTK (Homo sapiens, UniProt P33981+Q96SW2). Kind of data set: Protac activity at CRBN/TTK in human COLO 205 cells assessed as TTK degradation by measuring maximum degradation after 6 hrs by Western blotting analysis relative to control. Format: cell-based.
Target sequence in this assay (Q96SW2 whole entry, looked up, one chain of several): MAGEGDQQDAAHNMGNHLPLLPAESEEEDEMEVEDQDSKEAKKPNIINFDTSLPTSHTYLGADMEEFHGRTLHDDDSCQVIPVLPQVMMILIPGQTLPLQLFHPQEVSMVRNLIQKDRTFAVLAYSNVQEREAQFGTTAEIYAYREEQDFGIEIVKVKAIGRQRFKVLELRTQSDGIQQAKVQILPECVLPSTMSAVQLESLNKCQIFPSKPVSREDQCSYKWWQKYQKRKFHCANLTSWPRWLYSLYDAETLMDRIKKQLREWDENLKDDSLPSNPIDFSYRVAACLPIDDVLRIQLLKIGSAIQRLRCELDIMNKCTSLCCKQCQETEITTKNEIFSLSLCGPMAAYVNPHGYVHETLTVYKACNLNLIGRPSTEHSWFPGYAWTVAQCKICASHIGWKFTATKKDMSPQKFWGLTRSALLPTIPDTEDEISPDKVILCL
For data set [6], the target named is T2, Protein cereblon/Dual specificity protein kinase TTK. The data set can be described thus: Protac activity at CRBN/TTK in human COLO 205 cells assessed as degradation of TTK measured after 6 hrs by Western blotting analysis. Format: cell-based. (In general: A western blot detects proteins with antibodies after separation by electrophoresis.)
Target sequence in this assay (Q96SW2 whole entry, one chain of several): as the sequence (Q96SW2 whole entry, looked up, one chain of several) above
Data set [7] shares this target. Kind of data set: Protac activity at CRBN/TTK in human HCT-116 cells assessed as degradation of TTK measured after 6 hrs by Western blotting analysis. Format: cell-based.
Target sequence in this assay (Q96SW2 whole entry, one chain of several): as the sequence (Q96SW2 whole entry, looked up, one chain of several) above
For data set [8] the target is unchanged. Kind of data set: Protac activity at CRBN/TTK in human HCT-116 cells assessed as TTK degradation by measuring maximum degradation after 6 hrs by Western blotting analysis relative to control. It is filed as cell-based.
Target sequence in this assay (Q96SW2 whole entry, looked up, one chain of several): as above
For data set [9] the target is unchanged. Kind of data set: Protac activity at CRBN/TTK in human LoVo cells assessed as degradation of TTK measured at […] for 6 hrs by Western blotting analysis. It is filed as cell-based. As to conditions: dose lower 5.0 µM.
Target sequence in this assay (Q96SW2 whole entry, looked up, one chain of several): as above
Data set [10] shares this target. Kind of data set: Protac activity at CRBN/TTK in human HCT-8 cells assessed as degradation of TTK measured at […] for 6 hrs by Western blotting analysis. It is filed as cell-based. As to conditions: dose lower 5.0 µM.
Target sequence in this assay (Q96SW2 whole entry, looked up, one chain of several): as above
Data set [11] shares this target. Kind of data set: Protac activity at CRBN/TTK in human […] cells assessed as degradation of TTK measured at […] for 6 hrs by Western blotting analysis. Particulars: dose lower 5.0 µM. Format: cell-based.
Target sequence in this assay (Q96SW2 whole entry, looked up, one chain of several): as above
The next data set deals with LoVo. The data set can be described thus: Antiproliferative against human LoVo cells assessed as cell viability at 0.0001 to 100 uM at day 4 by CCK-8 assay. Format: functional, cell-based. As to conditions: dose 0.0001-100 µM. (In general: Formazan colour is commonly taken as a measure of viable cells.)
The test system of a further data set is HCT-8. Kind of data set: Antiproliferative against human HCT-8 cells assessed as cell viability at 0.0001 to 100 uM at day 4 by CCK-8 assay. It is filed as functional, cell-based. Particulars: dose 0.0001-100 µM.
For another data set, the system named is HCT-29. Kind of data set: Antiproliferative against human […] cells assessed as cell viability at 0.0001 to 100 uM at day 4 by CCK-8 assay. Format: functional, cell-based. As to conditions: dose 0.0001-100 µM.
For data set [12], the target named is T2, Protein cereblon/Dual specificity protein kinase TTK. The data set can be described thus: Protac activity at CRBN/TTK in human COLO 205 cells assessed as induction of TTK degradation at 5 nM after 6 to 8 hrs post washout by Western blot analysis. Format: cell-based. As to conditions: time 6-8 hrs.
Target sequence in this assay (Q96SW2 whole entry, looked up, one chain of several): as above
Data set [13] shares this target. Kind of data set: Protac activity at CRBN/TTK in human COLO 205 cells assessed as induction of TTK degradation at 5 nM after 16 hrs post washout by Western blot analysis. It is filed as cell-based.
The target is the same in data set [14]. Kind of data set: Protac activity at CRBN/TTK in human COLO 205 cells assessed as induction of TTK degradation in presence of N-[4-[2-[2-methoxy-4-(4-methylpiperazin-1-yl)anilino]-5-methyl-7-oxo-pyrido[2,3-d]pyrimidin-8-yl]cyclohexyl]propanamide after 6 hrs by Western blotting relative to control. Format: cell-based.
For data set [15] the target is unchanged. Kind of data set: Protac activity at CRBN/TTK in human COLO 205 cells assessed as induction of TTK degradation in presence of MG132 incubated for 1 hr by Western blotting analysis relative to control. Format: cell-based.
Data set [16] has the same target. Kind of data set: In vivo protac activity at CRBN/TTK in human COLO-205 cells xenografted in CB17-SCID mouse at 10 to 20 mg/kg, ip daily for 16 days by western blotting analysis. Format: organism-based. Particulars: dose 10-20 mg/kg, time 16.0 day.
Data set [17] relates to COLO 205. Kind of data set: Antitumor activity against human COLO205 cells xenografted in CB17-SCID mouse assessed as tumor growth inhibition at 20 mg/kg, ip daily for 16 days relative to control. As to conditions: COLO 205, ip, 384 h, time 16 day, read-out: TGI. It is filed as functional. For orientation: In xenograft studies the graft and the host belong to different species.

The nature of data set [18]: Toxicity in CB17-SCID mouse xenografted with human […] cells assessed as effect on body weight at 10 to 20 mg/kg, ip daily for 16 days. It is filed as organism-based, COLO 205. Particulars: in vivo, 384 h, dose 10-20 mg/kg, time 16 day.
Data set [19] relates to COLO 205. The data set can be described thus: Antitumor activity against human COLO205 cells xenografted in CB17-SCID mouse assessed as tumor growth inhibition at 10 mg/kg, ip daily for 16 days relative to control. It is filed as functional, organism-based. As to conditions: time 16.0 day.

By IC50 is commonly meant the concentration that inhibits the measured activity by half. Usually Kd stands for the free concentration of one partner at which half of the binding sites on the other are occupied at equilibrium, for simple one-to-one binding. As usually defined, the half-life is the time in which the quantity being followed falls by half. High values mean slow loss, low ones fast loss. Broadly, the AUC is the area under the concentration-time curve, a measure of exposure. A low value points to less exposure. Broadly, the Emax is the maximal effect, on the per cent scale that the assay sets. By DC50 is commonly meant the concentration at which degradation of the target reaches its halfway point.

Activity calls are given as the source filed them. No cut-off for these calls is given here.

Consider `CCC(=O)N[C@H]1CC[C@@H](n2c(=O)cc(C)c3cnc(Nc4ccc(N5CCN(C)CC5)cc4OC)nc32)CC1`, for which the IC50 with COLO 205 [1] worked out at 800 nM. Besides, the Kd in data set [2] was found to be 0.7 nM.
Molecule `CCC(=O)N[C@H]1CC[C@@H](n2c(=O)cc(C)c3cnc(Nc4ccc(N5CCN(C(=O)CCCCCC#Cc6ccc7c(c6)C(=O)N(C6CCC(=O)NC6=O)C7)CC5)cc4OC)nc32)CC1` (stereo partly drawn) had a half-life in data set [3] of 3.2 h. Also, the AUC in data set [4] worked out at 2330 ng·h/mL. The Emax was determined as 82% in data set [5] and 77% in data set [8]. In addition, the DC50 was found to be 3.1 nM in data set [6] and 12.4 nM in data set [7]. Besides, the Activity entry (in data set [9]; in [10]; in [11]; in the data set with LoVo; in the data set with HCT-8; in the data set on HCT-29) was “Dose-Dependent Effect” in each case. Also, the Activity entry in data set [18] was “Non-Toxic”. Besides, the outcome in [12] and in data set [16] was Active. The result (in data set [13]; in data set [14]; in data set [15]; in the data set with COLO 205 [19]) was inactive. For the same molecule, the IC50 with COLO 205 [1] turned out to be 200 nM. For the same molecule, the inhibition in vivo at 20 mg/kg in the data set with COLO 205 [17] amounted to 36.7%.
